In one series the test system is nTBP/Q79-EGFP cells. Description: MTT viability of Dox-induced nTBP/Q79-EGFP cells. Conditions: 15 μM, Dox induction 5 days. Type of series: cell-based, Human. Here is the method:
FIGS. 8A-8C show the effects of SB on improving the viability of nTBP/Q79-EGFP cells and inhibiting the expression levels of cleaved caspase-9, cleaved caspase-3, and cleaved PARP in nTBP/Q79-EGFP cells induced by doxycycline (Dox). FIG. 8A: The viabilities of 1.0×10^6 nTBP/Q36-EGFP cells and nTBP/Q79-EGFP cells which were pretreated with 15 μM SB for 1 hour followed by the induction of Dox for 1, 3, and 5 days were measured by MTT assay. FIG. 8B: 1.0×10^6 nTBP/Q36-EGFP cells and nTBP/Q79-EGFP cells were pretreated with 15 μM SB for 1 hour followed by the induction of Dox for 5 days. The levels of cleaved caspase-9, cleaved caspase-3, and cleaved PARP were detected by western blotting. Actin was used as a loading control. […] The results were shown as mean±SD, n=3, *p<0.05, comparing to the Dox group.
Human neuroblastoma SH-SY5Y cell line was obtained from American Type Culture Collection (ATCC). nTBP/Q36-EGFP cells (poly-Q of TATA-binding protein contains 36 glutamines in SH-SY5Y cells) and nTBP/Q79-EGFP cells (poly-Q of TATA-binding protein contains 79 glutamines in SH-SY5Y cells) were kindly supplied by Dr. Guey-Jen Lee-Chen, National Taiwan Normal University (NTNU). […]
The cell viability was measured using MTT colorimetric assay as mentioned previously. […]

Series [1] is described as follows: Body weight of SCA17 transgenic mice. The series is classed as in vivo. Conditions: 4.5 mg/kg i.p. once every 2 days, 10 to 20 weeks old. Here is the method:
FIGS. 10A-10F show the effects of SB on the body weight and motor performance in SCA17 transgenic mice. Mice were grouped into wild type-saline (WT-saline), transgenic-saline (TG-saline), and transgenic-SB treatment (TG-SB) groups. Mice were injected intraperitoneally with saline or SB (4.5 mg/kg) at 8-week old once every 2 days. […] FIG. 10E and FIG. 10F show respectively the stride length of front-limb/hind-limb at the right-side and the left-side. The values represent means±SD, n=6. *p<0.05, comparing to the TG-saline group.
In order to understand the efficacy of silibinin in treating SCA17 in vivo, SCA17 transgenic mice (referring as SCA17 mice hereinafter) were used, which were kindly provided by Dr. Hsiu-Mei Hsieh in NTNU.
The mice were housed individually in ventilated cages with a 12-hour light/dark cycle. All mice were maintained in the animal facility in NTNU under specific pathogen-free conditions in accordance with institutional guidelines of the Animal Care and Use Committee at NTNU. The experimental animals were used for motor behavioral assessments, footprint test and the protein aggregation analysis in cerebellum.
Since the SCA17 mice were 8 weeks old, the mice were injected intraperitoneally with silibinin in saline at 4.5 mg/kg once every 2 days, designated as TG_SB group. The mice in TG_saline group were injected with same amount of saline.

Series [2] has as its system SH-SY5Y cells. Description: Western blotting of calpain-2 and SBDP after MSG. Type of series: cell-based, Human. Conditions: 15 μM, 100 mM MSG, 6 hours. How it is done:
The levels of calpain-2 and SBDPs were measured by western blotting in 1×10^6 SH-SY5Y cells, wherein the control group (Ctrl) was untreated SH-SY5Y cells or the cells were treated with 100 mM MSG, 100 mM MSG+15 μM SB or 100 mM MSG+10 μM MK801 (MK) for 6 hours. Actin was used as a loading control.
In present embodiment, western blotting was performed to study whether silibinin protects SH-SY5Y cell from apoptosis due to glutamatergic excitotoxicity via calcium-dependent apoptosis pathway.
Calpain-2, a thiol proteinase, is activated by the increases of intracellular free calcium ions and the reduction of Bcl-2 level. The level of SBDPs was elevated by calcium-induced calpain-2 in glutamate-induced cell death. Therefore, calpain-2 and SBDPs were used as indicators in the present embodiment.
SH-SY5Y cells were treated with silibinin at pre-determined concentrations or 10 μM MK801 for 1 hour followed by the treatment of 100 mM MSG. Western blotting was performed to analyze the levels of calpain-2 and SBDP.
For orientation: Immunoblotting shows a protein as a band on a membrane.

Series [3] deals with SH-SY5Y cells. Description: Western blotting of cleaved caspase-9, cleaved caspase-3 and cleaved PARP after MSG. The series is classed as cell-based, Human. Conditions: 15 μM, 100 mM MSG, 24 hours. Here is the method:
FIGS. 5A-5D show the effects of SB on the levels of cleaved caspase-9, cleaved caspase-3, and cleaved poly(ADP-ribose) polymerase (PARP) in SH-SY5Y cells treated with MSG FIG. 5A: The levels of […] in 1×10^6 SH-SY5Y cells were measured by western blotting, wherein the control group (Ctrl) was untreated SH-SY5Y cells or the cells were treated with 100 mM MSG, 100 mM MSG+15 μM SB or 100 mM MSG+10 μM MK801 (MK) for 24 hours. Actin was used as a loading control. FIGS. 5B-5D show the quantification results measured by western blotting. Data were the mean values of three independent experiments.
Caspase belongs to cysteine protease family which is typically closely related to apoptosis, wherein the activation of caspase-9, caspase-3 and […] PARP is associated with delayed excitotoxicity damages. Therefore, western blotting was performed to analyze whether silibinin can protect SH-SY5Y cells from death via caspase-dependent apoptosis pathway in the present embodiment.

For the molecule `COc1cc(C2Oc3cc([C@H]4Oc5cc(O)cc(O)c5C(=O)[C@@H]4O)ccc3OC2CO)ccc1O` (stereo partly shown) [silibinin], the “increase of cell viability of nTBP/Q79-EGFP cells” value in the series on nTBP/Q79-EGFP cells is recorded as “approximately 20%”. In series [1], the “body weight compared to WT_saline group” value was “no significant differences”. Moreover, in the series on SH-SY5Y cells [2], the “reduction of SBDP level, compared to the increased level with MSG only” value turned out to be 250% and the “reduction of calpain-2 level, compared to the increased level with MSG only” value stood at 200%. Besides, in the series on SH-SY5Y cells [3], the “reduction of cleaved PARP level, compared to the increased level with MSG only” value was 52%; the “reduction of cleaved-caspase-3 level, compared to the increased level with MSG only” value was found to be 83%; the “reduction of cleaved-caspase-9 level, compared to the increased level with MSG only” value is listed as 125%.

The values are drawn from patent US20170246144A1, “METHOD OF PREVENTING OR TREATING SPINOCEREBELLAR ATAXIA BY ADMINISTRATING SILIBININ” (National Taiwan Normal University, priority 2016, published 2017).
